Laboratory results reported in US11059845B2, “Immune stimulating macrolides” (ISR IMMUNE SYSTEM REGULATION HOLDING AB (PUBL), priority 2017, dated 2021).
Converted amounts (≈) assume the structure as drawn.

Assays:
Type in all cases: cell-based
[1] = target: T1, human TLR2 (Homo sapiens, UniProt O60603); experiment: TLR2 reporter assay (HEK-293-TLR, SEAP); settings: for OD after addition of 5 μM test article / OD after addition of 10 μM test article / OD after addition of 20 μM test article: SEAP reporter optical density; for TLR2 stimulation: at concentrations up to 20 uM
T1 construct: host or cells: recombinant HEK-293-TLR cell lines (hTLR2, NFkB-SEAP reporter)
T1 sequence (O60603 21-784): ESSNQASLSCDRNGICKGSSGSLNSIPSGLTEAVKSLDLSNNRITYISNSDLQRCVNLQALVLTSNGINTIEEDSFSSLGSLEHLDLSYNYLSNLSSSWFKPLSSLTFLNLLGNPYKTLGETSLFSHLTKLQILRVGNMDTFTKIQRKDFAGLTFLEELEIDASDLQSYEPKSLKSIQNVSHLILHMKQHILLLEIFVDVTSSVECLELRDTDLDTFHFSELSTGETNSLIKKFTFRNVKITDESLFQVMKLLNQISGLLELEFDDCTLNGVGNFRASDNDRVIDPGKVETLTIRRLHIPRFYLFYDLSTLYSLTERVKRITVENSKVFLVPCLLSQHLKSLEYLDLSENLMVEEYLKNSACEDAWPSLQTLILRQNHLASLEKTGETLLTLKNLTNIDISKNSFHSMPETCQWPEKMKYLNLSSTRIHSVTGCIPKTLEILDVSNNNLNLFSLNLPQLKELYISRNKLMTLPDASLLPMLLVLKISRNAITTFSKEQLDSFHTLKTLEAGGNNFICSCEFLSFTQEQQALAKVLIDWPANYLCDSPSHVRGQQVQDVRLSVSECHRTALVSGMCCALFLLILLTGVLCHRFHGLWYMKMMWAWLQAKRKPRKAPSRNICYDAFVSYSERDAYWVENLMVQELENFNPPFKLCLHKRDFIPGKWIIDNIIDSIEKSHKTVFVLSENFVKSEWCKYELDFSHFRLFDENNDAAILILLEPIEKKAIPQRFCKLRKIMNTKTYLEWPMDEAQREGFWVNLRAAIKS
Method: Samples and controls were tested in duplicate on recombinant HEK-293-TLR cell lines using a cell reporter assay at Invivogen using their standard assay conditions. These cell lines functionally over-express human TLR2 protein as well as a reporter gene which is a secreted alkaline phosphatase (SEAP). The production of this reporter gene is driven by an NFkB inducible promoter. The TLR reporter cell lines activation results are given as optical density values (OD). 20 μl of each test article were used to stimulate the hTLR2 reporter cell lines in a 200 μl of final reaction volume. Samples were tested in duplicate, with at least two concentrations tested—20 uM and 10 uM.
Compounds were tested using a TLR2 reporter assay (see general methods) that measured for stimulation of the TLR2 receptor. Stimulatory effect was measured as an increase in optical density (OD) due to release of secreted alkaline phosphatase (SEAP) and is shown in table 4: […]

[2] = system: E. coli, S. salivarius, L. casei, B. longum or M. luteus; experiment: Direct antibacterial activity, summary over all strains tested; settings: against the bacterial strains tested (Table 1)
Method: (§1) The bioactivity of macrolide compounds against 4 strains of common gut bacteria (Escherichia coli, Streptococcus salivarius subsp. salivarius, Lactobacillus casei and Bifidobacterium longum subsp. infantis) and common mammalian skin isolate Micrococcus luteus, was assessed using the Minimum Inhibitory Concentration (MIC) assay. Bacterial strains were purchased from DSMZ (Brunswick, Germany) except M. luteus which was obtained from NCIMB, and stored in 20% glycerol at −80° C. Stock solutions (100% DMSO) of positive controls (azithromycin and erythromycin), and of test compounds 1 and 2 were diluted in broth to working stock concentrations of 256 μg/ml (final assay testing concentration range 128 μg/ml to 0.00391 μg/ml). Stock solutions of all other compounds were diluted in broth to working stock concentrations of 128 μg/ml (final assay testing concentration range 64 μg/ml to 0.00195 μg/ml). Bacterial strains were cultivated in appropriate broth in an anaerobic chamber at 37° C., except for M. luteus which was incubated aerobically at 37° C. 18 h cultures were diluted in broth to an OD595 of 0.1 and then further diluted 1:10. In 96-well plates, in duplicate, 200 μl working stock of test compound was transferred to well 1 and serially diluted (1:2) in broth. 100 μl bacterial suspension was aliquoted into each well and mixed thoroughly. Appropriate sterility controls were included and plates were incubated in an anaerobic chamber, or aerobically (M. luteus) at 37° C. for 18 h. The MIC was determined to be the concentration of test compound in the first well with no visible growth.

[3] = system: Escherichia coli; experiment: Minimum Inhibitory Concentration (MIC) assay; settings: anaerobic, 37° C., 18 h
Method: as §1

[4] = system: Streptococcus salivarius subsp. salivarius; experiment: Minimum Inhibitory Concentration (MIC) assay; settings: anaerobic, 37° C., 18 h
Method: as §1

[5] = system: Lactobacillus casei; experiment: Minimum Inhibitory Concentration (MIC) assay; settings: Lacticaseibacillus casei; anaerobic, 37° C., 18 h
Method: as §1

[6] = system: Bifidobacterium longum subsp. infantis; experiment: Minimum Inhibitory Concentration (MIC) assay; settings: anaerobic, 37° C., 18 h
Method: as §1

[7] = system: Micrococcus luteus; experiment: Minimum Inhibitory Concentration (MIC) assay; settings: aerobic, 37° C., 18 h
Method: as §1

Structure (SMILES) | OD after addition of 5 μM test article [1] | OD after addition of 10 μM test article [1] | OD after addition of 20 μM test article [1] | TLR2 stimulation [1] | antibacterial activity [2] | MIC [3] | MIC [4] | MIC [5] | MIC [6] | MIC [7] | concentrations at which TLR2 was stimulated (down to) ([1]; lowest stimulating concentration tested)
CC[C@H]1OC(=O)[C@H](C)[C@@H](O[C@H]2C[C@@](C)(OC)[C@@H](O)[C@H](C)O2)[C@H](C)[C@@H](O[C@@H]2O[C@H](C)C[C@H](N(C)C)[C@H]2O)[C@](C)(O)C[C@@H](C)CN(C)[C@H](C)[C@@H](O)[C@]1(C)O [Azithromycin, reference compound] | 0.029 | 0.045 | 0.031 | little or no stimulation | potent activity against a number of the strains | < 8 µg/mL | < 0.5 µg/mL | < 1 µg/mL | > 64 µg/mL | 0.125 µg/mL (≈ 0.167 µM) | 
CC[C@H]1OC(=O)[C@H](C)[C@@H](O[C@H]2CC(N(C)C)[C@H](O)C(C)O2)[C@H](C)[C@@H](O)[C@](C)(O)C[C@@H](C)C(=O)[C@H](C)[C@@H](O)[C@H]1C (some centres unmarked) [Compound 3] | −0.043 | −0.015 | −0.026 | little or no stimulation | no antibacterial activity |  |  |  |  |  | 
CC[C@H]1OC(=O)[C@H](C)[C@@H](O[C@H]2CC(N(C)C)[C@H](O)C(C)O2)[C@H](C)[C@@H](O)[C@](C)(O)C[C@@H](C)CN(C)[C@H](C)[C@@H](O)[C@H]1C (some centres unmarked) [Compound 4] |  |  |  |  | no antibacterial activity | > 64 µg/mL | > 64 µg/mL | > 64 µg/mL | > 64 µg/mL |  | 
CC1O[C@@H](O[C@H]2[C@H](C)[C@@H](O)[C@](C)(O)C[C@@H](C)C(=O)[C@H](C)[C@@H](O)[C@@H](C)[C@@H](C3CCC3)OC(=O)[C@@H]2C)CC(N(C)C)[C@@H]1O (some centres unmarked) [Compound 5] |  |  |  |  | no antibacterial activity | > 64 µg/mL | > 64 µg/mL | > 64 µg/mL | > 64 µg/mL |  | 
CC[C@H]1OC(=O)[C@H](C)[C@@H](O[C@H]2CC(NC)[C@H](O)C(C)O2)[C@H](C)[C@@H](O)[C@](C)(O)C[C@@H](C)C(=O)[C@H](C)[C@@H](O)[C@H]1C (some centres unmarked) [Compound 6] |  |  |  |  | no antibacterial activity | > 64 µg/mL | > 64 µg/mL | > 64 µg/mL | > 64 µg/mL |  | 
CC[C@H]1OC(=O)[C@H](C)[C@@H](O[C@H]2CC(N(C)C)[C@H](O)C(C)O2)[C@H](C)[C@@H](O)[C@](C)(O)C[C@@H](C)C(O)[C@H](C)[C@@H](O)[C@H]1C (some centres unmarked) [Compound 7] |  |  |  |  | no antibacterial activity | > 64 µg/mL | > 64 µg/mL | > 64 µg/mL | > 64 µg/mL |  | 
CC1O[C@@H](O[C@H]2[C@H](C)[C@@H](O)[C@](C)(O)C[C@@H](C)C(=O)[C@H](C)[C@@H](O)[C@@H](C)[C@@H](C)OC(=O)[C@@H]2C)CC(N(C)C)[C@@H]1O (some centres unmarked) [Compound 8] |  |  |  |  | no antibacterial activity | > 64 µg/mL | > 64 µg/mL | > 64 µg/mL | > 64 µg/mL |  | 
CC(O)[C@H]1OC(=O)[C@H](C)[C@@H](O[C@H]2C[C@@H](N(C)C)[C@H](O)[C@@H](C)O2)[C@H](C)[C@@H](O)[C@](C)(O)C[C@@H](C)C(=O)[C@H](C)[C@@H](O)[C@H]1C (some centres unmarked) [Compound 9, 14-hydroxy angolosamine erythronolide B] |  |  |  |  | no antibacterial activity | > 64 µg/mL | > 64 µg/mL | > 64 µg/mL | > 64 µg/mL |  | 
CC[C@H]1OC(=O)[C@H](C)[C@@H](O[C@H]2CC(N(C)C)[C@H](O)C(C)O2)[C@H](C)[C@@H](O)[C@](C)(O)C[C@@H](C)N(C)C[C@H](C)[C@@H](O)[C@]1(C)O (some centres unmarked) [Compound 17] | 0.054 | 0.155 | 0.234 |  |  |  |  |  |  |  | ≥ 10 µM
CC[C@H]1OC(=O)[C@H](C)[C@@H](O[C@H]2C[C@@](C)(OC)[C@@H](O)[C@H](C)O2)[C@H](C)[C@@H](O[C@@H]2O[C@H](C)C[C@H](N(C)C)[C@H]2O)[C@](C)(O)C[C@@H](C)C(=O)[C@H](C)[C@@H](O)[C@]1(C)O [Erythromycin, reference compound] | 0.035 | 0.065 | 0.045 | little or no stimulation | potent activity against a number of the strains | > 64 µg/mL | < 0.06 µg/mL | < 0.25 µg/mL | > 64 µg/mL | < 0.0625 µg/mL | 
